One experiment concerns the target T1, ORL1 receptor (Homo sapiens, UniProt P41146).
T1 construct: expressed in transfected cells; host or cells: CHO (recombinant CHO-ORL1 cells), membranes
The experiment can be described thus: ORL1 receptor binding assay with 3H-nociceptin/orphanin FQ (WGA-SPA beads). To be noted: c=1 μM test substance; 0.5 nM 3H-nociceptin/orphanin FQ; membranes of recombinant CHO-ORL1 cells. In a few lines:
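Affinity given as nanomolar Ki or as % inhibition at c=1 μM. Membranes of CHO cells expressing recombinant ORL1 (20 μg protein) were incubated one hour at room temperature with 0.5 nM 3H-nociceptin/orphanin FQ in Hepes 50 mM, pH 7.4, plus MgCl2 and EDTA; bound ligand detected by SPA bead scintillation counting.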

In the next experiment the target is T2, human μ-opiate receptor (Homo sapiens, UniProt P35372).
T2 construct: purchased NEN, Zaventem, Belgium RB-HOM; host or cells: CHO-K1 cells (membrane preparation)
T2 sequence (P35372 whole entry): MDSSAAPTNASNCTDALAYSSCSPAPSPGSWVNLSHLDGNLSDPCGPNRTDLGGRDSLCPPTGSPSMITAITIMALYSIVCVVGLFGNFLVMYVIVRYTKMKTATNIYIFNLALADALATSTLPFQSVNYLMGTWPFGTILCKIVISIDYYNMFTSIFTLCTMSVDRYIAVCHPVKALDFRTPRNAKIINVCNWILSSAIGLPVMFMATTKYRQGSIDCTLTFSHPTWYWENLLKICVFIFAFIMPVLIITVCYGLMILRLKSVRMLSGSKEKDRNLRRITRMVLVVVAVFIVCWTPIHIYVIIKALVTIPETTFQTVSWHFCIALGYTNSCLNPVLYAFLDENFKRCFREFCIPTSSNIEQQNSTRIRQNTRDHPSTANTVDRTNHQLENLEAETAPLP
Description: μ-opiate receptor binding assay with [3H] naloxone (WGA-SPA beads). The following applies: 1 μmol/l test substance, 1 nmol/l [3H] naloxone, CHO-K1 cell membranes expressing human μ-opiate receptor. In a few lines:
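Scintillation proximity readout: [3H]naloxone (1 nmol/l) displacement measured after 90 min, room temperature, on human μ-receptor CHO-K1 membranes in Tris-HCl/azide/BSA buffer; 25 μmol/l naloxone defined non-specific binding. Values are % specific-binding inhibition at 1 μmol/l, or Ki from IC50 (Cheng-Prusoff).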

The structures appear in SMILES notation.

T1 sequence (P41146 whole entry): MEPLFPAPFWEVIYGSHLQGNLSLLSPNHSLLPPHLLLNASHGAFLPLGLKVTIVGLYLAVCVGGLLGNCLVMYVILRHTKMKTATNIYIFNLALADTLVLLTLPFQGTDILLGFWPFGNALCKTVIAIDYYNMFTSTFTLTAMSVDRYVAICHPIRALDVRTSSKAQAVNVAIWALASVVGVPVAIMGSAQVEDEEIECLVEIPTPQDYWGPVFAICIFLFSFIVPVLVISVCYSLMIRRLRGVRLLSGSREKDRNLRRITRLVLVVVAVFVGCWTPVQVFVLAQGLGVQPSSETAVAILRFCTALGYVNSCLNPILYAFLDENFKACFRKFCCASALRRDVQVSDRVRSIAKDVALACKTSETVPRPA

Take `CN(CCN1CCC(c2ccccc2)(N2CCCC2)CC1)C(=O)c1cc2cc(F)ccc2[nH]1` [Example 51, 5-Fluoro-N-methyl-N-(2-(4-phenyl-4-(pyrrolidin-1-yl)piperidin-1-yl)ethyl)-1H-indole-2-carboxamide]: the inhibition at 1 µM was 26% at ORL1 receptor and 43% on human μ-opiate receptor.

Consider `CCCCC1(N(C)C)CCN(CCN(C)C(=O)c2cc3cc(F)ccc3[nH]2)CC1` [Example 52, N-(2-(4-Butyl-4-(dimethylamino)piperidin-1-yl)ethyl)-5-fluoro-N-methyl-1H-indole-2-carboxamide], for which the inhibition at 1 µM at ORL1 receptor was 28%; at human μ-opiate receptor, 65%.

`CN(CCCN1CCC(c2ccccc2)(N(C)C)CC1)C(=O)c1cc2cc(F)ccc2[nH]1` [Example 53, N-(3-(4-(Dimethylamino)-4-phenylpiperidin-1-yl)propyl)-5-fluoro-N-methyl-1H-indole-2-carboxamide]: the inhibition at 1 µM at ORL1 receptor was determined as 73%; on human μ-opiate receptor, 90%.

As to `CN(CCCN1CCC(c2ccccc2)(N(C)C)CC1)C(=O)c1ccc2cc[nH]c2c1` [Example 56, N-(3-(4-(Dimethylamino)-4-phenylpiperidin-1-yl)propyl)-N-methyl-1H-indole-6-carboxamide], the inhibition at 1 µM on ORL1 receptor was determined as 35%; at human μ-opiate receptor it was 71%.

As to `CCCCC1(N(C)C)CCN(CCN(C)C(=O)CC(C)c2c[nH]c3ccccc23)CC1` (stereo not drawn) [Example 58, N-(2-(4-Butyl-4-(dimethylamino)piperidin-1-yl)ethyl)-3-(1H-indol-3-yl)-N-methylbutanamide], the inhibition at 1 µM at ORL1 receptor was found to be 20%; at human μ-opiate receptor it was 77%.

As to `CC(CC(=O)N(C)CCCN1CCC(c2ccccc2)(N(C)C)CC1)c1c[nH]c2ccccc12` (stereo not drawn) [Example 59, N-(3-(4-(Dimethylamino)-4-phenylpiperidin-1-yl)propyl)-3-(1H-indol-3-yl)-N-methylbutanamide], the inhibition at 1 µM on ORL1 receptor was 60%; at human μ-opiate receptor, 86%.

For `CCCCC1(N(C)C)CCN(CCN(C)C(=O)CCc2c[nH]c3ccccc23)CC1` [Example 60, N-(2-(4-Butyl-4-(dimethylamino)piperidin-1-yl)ethyl)-3-(1H-indol-3-yl)-N-methylpropanamide], the inhibition at 1 µM was determined as 45% on ORL1 receptor and 81% at human μ-opiate receptor.

Regarding `CN(CCCN1CCC(c2ccccc2)(N(C)C)CC1)C(=O)CCc1c[nH]c2ccccc12` [Example 61, N-(3-(4-(Dimethylamino)-4-phenylpiperidin-1-yl)propyl)-3-(1H-indol-3-yl)-N-methylpropanamide], the inhibition at 1 µM at ORL1 receptor amounted to 65%; at human μ-opiate receptor, 89%.

In the case of `CN(CCN1CCC(c2ccccc2)(N2CCCC2)CC1)C(=O)Cc1c[nH]c2ccc(Br)cc12` [Example 62, 2-(5-Bromo-1H-indol-3-yl)-N-methyl-N-(2-(4-phenyl-4-(pyrrolidin-1-yl)piperidin-1-yl)ethyl)acetamide], the values for the inhibition at 1 µM at ORL1 receptor and on human μ-opiate receptor were 14% and 57%, respectively.

On to `CN(CCCN1CCC(c2ccccc2)(N(C)C)CC1)C(=O)Cc1c[nH]c2ccc(Br)cc12` [Example 63, 2-(5-Bromo-1H-indol-3-yl)-N-(3-(4-(dimethylamino)-4-phenylpiperidin-1-yl)propyl)-N-methylacetamide], for which the inhibition at 1 µM at ORL1 receptor was found to be 41%; at human μ-opiate receptor, 81%.

Take `COc1ccc2[nH]c(C(=O)N(C)CCCN3CCC(c4ccccc4)(N(C)C)CC3)cc2c1` [Example 66, N-(3-(4-(Dimethylamino)-4-phenylpiperidin-1-yl)propyl)-5-methoxy-N-methyl-1H-indole-2-carboxamide]: the inhibition at 1 µM at ORL1 receptor amounted to 33%; at human μ-opiate receptor it was 71%.

Consider `CC(C)c1ccc2c(CN(C)CCCN3CCC(c4cccs4)(N(C)C)CC3)c[nH]c2c1` [Example 67, 1-(3-(((6-Isopropyl-1H-indol-3-yl)methyl)(methyl)amino)propyl)-N,N-dimethyl-4-(thiophen-2-yl)piperidin-4-amine], for which the inhibition at 1 µM at ORL1 receptor worked out at 90%; at human μ-opiate receptor it was 93%.

`CN(CCN1CCC(c2ccccc2)(N(C)C)CC1)Cc1ccc2[nH]ccc2c1` [Example 68, 1-(2-(((1H-Indol-5-yl)methyl)(methyl)amino)ethyl)-N,N-dimethyl-4-phenylpiperidin-4-amine]: the inhibition at 1 µM worked out at 65% at ORL1 receptor and 93% on human μ-opiate receptor.

Regarding `CN(C)C1(c2cccs2)CCN(CCNCc2ccc3[nH]ccc3c2)CC1` [Example 69, 1-(2-((1H-Indol-5-yl)methylamino)ethyl)-N,N-dimethyl-4-(thiophen-2-yl)piperidin-4-amine], the values for the inhibition at 1 µM on ORL1 receptor and at human μ-opiate receptor were 90% and 96%, respectively.

Regarding `CN(CCN1CCC(c2ccccc2)(N(C)C)CC1)Cc1c(-c2ccc(F)cc2)[nH]c2ccccc12` [Example 70, 1-(2-(((2-(4-Fluorophenyl)-1H-indol-3-yl)methyl)(methyl)amino)ethyl)-N,N-dimethyl-4-phenylpiperidin-4-amine], the figures for the inhibition at 1 µM on ORL1 receptor and on human μ-opiate receptor were 80% and 98%, respectively.

For the molecule `CN(CCN1CCC(c2ccccc2)(N(C)C)CC1)Cc1c(-c2ccccc2)[nH]c2ccccc12` [Example 71, N,N-Dimethyl-1-(2-(methyl((2-phenyl-1H-indol-3-yl)methyl)amino)ethyl)-4-phenylpipendin-4-amine], the inhibition at 1 µM on ORL1 receptor turned out to be 83%; at human μ-opiate receptor, 96%.

As for `CN(C)C1(c2cccs2)CCN(CCNCc2c[nH]c3ccc(Cl)cc23)CC1` [Example 72, 1-(2-((5-Chloro-1H-indol-3-yl)methylamino)ethyl)-N,N-dimethyl-4-(thiophen-2-yl)piperidin-4-amine], at ORL1 receptor, the “% Inhibition (ORL1) at 1 μM” value is 95%. Further, the “% Inhibition (μ) at 1 μM” value on human μ-opiate receptor (1 µM) came out at 101%.

Take `CC(C)c1ccc2c(CN(C)CCN3CCC(c4ccccc4)(N(C)C)CC3)c[nH]c2c1` [Example 73, 1-(2-(((6-Isopropyl-1H-indol-3-yl)methyl)(methyl)amino)ethyl)-N,N-dimethyl-4-phenylpiperidin-4-amine]: on ORL1 receptor, the “% Inhibition (ORL1) at 1 μM” value stood at 95%. Further, the “% Inhibition (μ) at 1 μM” value on human μ-opiate receptor amounted to 95%.

Take `CC(C)c1ccc2c(CNCCN3CCC(c4cccs4)(N(C)C)CC3)c[nH]c2c1` [Example 74, 1-(2-((6-Isopropyl-1H-indol-3-yl)methylamino)ethyl)-N,N-dimethyl-4-(thiophen-2-yl)pipendin-4-amine]: the inhibition at 1 µM on ORL1 receptor was determined as 97%; at human μ-opiate receptor, 99%.

Take `COc1ccc2[nH]cc(CN(C)CCN3CCC(c4ccccc4)(N(C)C)CC3)c2c1` [Example 75, 1-(2-(((5-Methoxy-1H-indol-3-yl)methyl)(methyl)amino)ethyl)-N,N-dimethyl-4-phenylpiperidin-4-amine]: the “% Inhibition (ORL1) at 1 μM” value on ORL1 receptor is 79%. The “% Inhibition (μ) at 1 μM” value on human μ-opiate receptor (1 µM) amounted to 97%.

For the molecule `COc1ccc2[nH]cc(CNCCN3CCC(c4cccs4)(N(C)C)CC3)c2c1` [Example 76, 1-(2-((5-Methoxy-1H-indol-3-yl)methylamino)ethyl)-N,N-dimethyl-4-(thiophen-2-yl)pipendin-4-amine], the “% Inhibition (ORL1) at 1 μM” value on ORL1 receptor was 93%. The “% Inhibition (μ) at 1 μM” value on human μ-opiate receptor is reported as 99%.

In the case of `COc1ccc2c(c1)c(CN(C)CCN1CCC(c3ccccc3)(N(C)C)CC1)c(C)n2Cc1ccccc1` [Example 77, 1-(2-(((1-Benzyl-5-methoxy-2-methyl-1H-indol-3-yl)methyl)(methyl)amino)ethyl)-N,N-dimethyl-4-phenylpiperidin-4-amine], at ORL1 receptor, the “% Inhibition (ORL1) at 1 μM” value is given as 60%. For the same molecule, the “% Inhibition (μ) at 1 μM” value at human μ-opiate receptor (1 µM) came out at 89%.

Regarding `COc1ccc2c(c1)c(CNCCN1CCC(c3cccs3)(N(C)C)CC1)c(C)n2Cc1ccccc1` [Example 78, 1-(2-((1-Benzyl-5-methoxy-2-methyl-1H-indol-3-yl)methylamino)ethyl)-N,N-dimethyl-4-(thiophen-2-yl)piperidin-4-amine], the inhibition at 1 µM on ORL1 receptor was 62%; at human μ-opiate receptor it was 93%.

Consider `Cc1c(CN(C)CCN2CCC(c3ccccc3)(N(C)C)CC2)c2ccccc2n1C` [Example 79, 1-(2-(((1,2-Dimethyl-1H-indol-3-yl)methyl)(methyl)amino)ethyl)-N,N-dimethyl-4-phenylpiperidin-4-amine], for which, on ORL1 receptor, the “% Inhibition (ORL1) at 1 μM” value amounted to 83%. Also, on human μ-opiate receptor (1 µM), the “% Inhibition (μ) at 1 μM” value is given as 101%.

With `Cc1c(CNCCN2CCC(c3cccs3)(N(C)C)CC2)c2ccccc2n1C` [Example 80, 1-(2-((1,2-Dimethyl-1H-indol-3-yl)methylamino)ethyl)-N,N-dimethyl-4-(thiophen-2-yl)pipendin-4-amine], the inhibition at 1 µM on ORL1 receptor amounted to 97%; on human μ-opiate receptor, 101%.

For `Cc1c(CN(C)CCCN2CCC(c3cccs3)(N(C)C)CC2)c2ccccc2n1C` [Example 81, 1-(3-(((1,2-Dimethyl-1H-indol-3-yl)methyl)(methyl)amino)propyl)-N,N-dimethyl-4-(thiophen-2-yl)piperidin-4-amine], the inhibition at 1 µM at ORL1 receptor was found to be 98%; on human μ-opiate receptor, 100%.

`CC(C)C(C(=O)N1CCC(c2ccccc2)(N(C)C)CC1)N(C)C(=O)Cc1c[nH]c2cc(F)ccc12` (stereo not drawn) [Example 82, N-(1-(4-(dimethylamino)-4-phenylpiperidin-1-yl)-3-methyl-1-oxobutan-2-yl)-2-(6-fluoro-1H-indol-3-yl)-N-methylacetamide]: the inhibition at 1 µM on ORL1 receptor and at human μ-opiate receptor was 97% throughout.

The record behind these values is patent US9206156B2, “Substituted indole derivatives” (GRÜNENTHAL GMBH, priority 2008, dated 2015).
